From patent US20030232087A1, “Bioactive agent release coating with aromatic poly(meth)acrylates” (priority 2002, published 2003) come the findings set out here.

Series [1] in a line: Bioactive Agent Release Assay, β-estradiol from coated stents. Type of series: physicochemical. As to conditions: pEVA/pBMA 14/86% (w/w), coated at 0, 20, 30 or 40% relative humidity at 22° C.; PBS, 37° C.; FIG. 3. On the procedure: A polymer coating solution containing poly(ethylene-co-vinylacetate) with a vinyl acetate concentration of 33% (w/w) and poly(n-butyl methacrylate) was prepared in 5 tetrahydrofuran at a polymer ratio of 14/86% (w/w), respectively. β-estradiol was added to the polymer coating solution after dissolution of the polymer in order to provide a coating composition of Applicant's above-captioned copending application in the form a one part system The bioactive agent/polymer ratio of the β-estradiol containing polymer solution was 30/70% (w/w) at a concentration of 10 mg/ml.
Eighteen-millimeter long, electropolished stainless steel stents with a 2 mm outer diameter were fabricated (Laserage Technology Corporation, Waukegan Ill.). […]
A suitable Bioactive Agent Release Assay, as described herein, can be used to determine the extent and rate of bioactive agent release under physiological conditions. In general it is desirable that less that 50% of the total quantity of the bioactive agent be released in the first 24 hours. It is frequently desirable for quantities of bioactive agent to be released for a duration of at least 30 days.
Except as otherwise provided herein, each coated stent was placed in an amber vial with 1.6 mls of PBS. […] The concentration of β-estradiol in each PBS sample was determined using UV spectroscopy.

Series [2] can be described thus: Bioactive Agent Release Assay, dextran-TRITC from coated discs with polymer topcoat. As to conditions: pEVA (33% vinyl acetate)/pBMA topcoat coated at 48% relative humidity compared with 10% relative humidity; PBS, 37° C.; FIG. 2. Format: physicochemical. Here is the method:
Two solutions were prepared in order to provide a coating composition of Applicant's copending application in the form of a two part system. The first solution was an aqueous solution containing the bioactive agent, dextran-TRITC, at a concentration of 15 mg/ml. The second solution contained poly(ethylene-co-vinylacetate) with a vinyl acetate concentration of 33% (w/w) and poly(n-butyl methacrylate), with approximate weight average molecular weight of 337 kilodaltons. The poly(n-butyl methacrylate) and poly(ethylene-co-vinylacetate) were purified by extraction with organic solvents to remove impurities, e.g., monomer residues. The polymers of the second solution were dissolved in tetrahydrofuran at a concentration of 10 mg/ml. […]
A suitable Bioactive Agent Release Assay, as describe herein, can be used to determine the extent and rate of bioactive agent release under physiological conditions. In general it is desirable that less than 50% of the total quantity of the bioactive agent be released in the first 24 hours. It is frequently desirable for quantities of bioactive agent to be released for a duration of at least 30 days.
Except as otherwise provided herein, each coated disc was placed in an amber vial with 4 mls of PBS. […] The concentration of bioactive agent in each PBS sample was determined using UV spectroscopy. […]

As to `C[C@]12CC[C@@H]3c4ccc(O)cc4CC[C@H]3[C@@H]1CC[C@@H]2O` [β-estradiol], the “β-estradiol rate of release from coating” value in series [1] is reported as “different humidity level conditions can be used to control the β-estradiol rate of release”. “tetramethylrhodamine isothiocyanate-Dextran [dextran-TRITC]”: the “release rate of bioactive agent from composite coating” value in series [2] is recorded as “faster rate”.
